Measured values reported in patent US11370846B2, “Compositions and methods to regulate Renalase in the treatment of cancer” (Yale University, priority 2014, dated 2022).

Experiments:
WT mice = assay: Renal ischemia and reperfusion in WT mice with renalase peptide RP-H220; format: in vivo, mouse; conditions: 30 minutes of renal ischemia and reperfusion
Experimental: FIG. 3 is a chart showing that ERK or AKT inhibition abrogates protective effect of renalase peptide: WT mice subjected to sham surgery or to 30 minutes of renal ischemia and reperfusion; RP-[…] or vehicle (saline) injected 10 minutes before renal ischemia. ERK inhibitor PD98059 or the PI3K/AKT inhibitor wortmannin abrogated RP-[…]'s protective effect.

MiaPaCa2 cell = conditions: pretreatment, MiaPaCa2, WST-1, 72 hrs
Experimental: FIG. 24B is a chart depicting cell viability relative to control: MiaPaCa2 cell serum starved and then treated with BSA (30 μg/ml) or rRNLS (30 μg/ml), with and without pretreatment with MEK1 inhibitor U0126, and cell viability measured 72 hrs later using the WST-1 assay; n=6, * indicates p<0.005.
For some studies, cell viability was determined using the WST-1 reagent (Roche Diagnostics, Indianapolis, Ind., USA) as previously described (Wang et al., 2014 Journal of the American Society of Nephrology. DOI:10.1681/asn.2013060665).

| SMILES | effect on RP-H220's protective effect (WT mice) | effect on rRNLS' protective effect (MiaPaCa2 cell) |
| --- | --- | --- |
| COc1cccc(-c2cc(=O)c3ccccc3o2)c1N [PD98059] | abrogated RP-H220's protective effect |  |
| N#CC(=C(/N)Sc1ccccc1N)/C(C#N)=C(\N)Sc1ccccc1N [U0126] |  | abrogated rRNLS' protective effect |
